Patent US20080155704A1, “Methods and Compositions for Determining in vivo Activity of BiP” (King's College London, priority 2006, published 2008)

Columns and labels:
[1] = system: autologous responder T cells; test: Regulatory T cell activity after co-culture with DC(BiP): responder T cell proliferation to anti-CD3; format: cell-based, human
Protocol: FIG. 12: Co-culture with BiP-treated dendritic cells (DC) leads T cells to have regulatory function. After 4d pre-incubation with either autologous or allogeneic DC, or DC(BiP), T cells were washed and set up in autologous cultures with irradiated peripheral blood mononuclear cells (PBMC) and responder T cells (1:1:1 ratio) (105 cells each/well) in the presence or absence of anti-CD3 antibody (1/2000 dilution). […] (B) a representative experiment showing an autologous experiment using Δ counts per minute (Δcpm) (stimulated-unstimulated cpm) following stimulation with anti-CD3 antibody to irradiated PBMC (irMC) or responder T cells (rT) alone and cultures with irMC+rT+T cells prestimulated (pT) by autologous DC populations as indicated; (C) mean ±standard deviation of unstimulated and stimulated cultures from a representative experiment where autologous irMC+rT+pT, previously cocultured with allogeneic DC populations as indicated, were present in ratio 1:1:1.
Purified T cells (>95% T cells) (2.10^6/well) either autologous or allogeneic were cultured in the absence or presence of irradiated DC populations in 24-well flat-bottomed plates at a IDC: 10 T cell ratio for 4 days. […]

T cells = test: Direct effect of BiP on T cells / PBMC: marker expression; format: cell-based, human
Protocol: CCR4 and CCR5 expression by T cells.
Immunofluorescent staining was performed as follows when required. Cells were suspended in immunofluorescent buffer (IF) (PBS/0.1% BSA/0.05% azide) washed and incubated for 10 mins on ice with normal human serum. After washing twice in IF buffer, saturating concentrations of fluorescein isothiocyanate (FITC)-, phycoerythrin (PE) or peridium chlorophyll (Per-CP)-conjugated monoclonal antibodies (mAb) recognizing human CD14, CD86, CD80, HLA-DR, CD11c, CD1a, CD83, CD40 and CD85j, (all from Becton Dickinson/PharMingen, Oxford, UK) were added singly or in combination, as stated in the text, to cells for 20 mins on ice. Cells were then washed twice in IF buffer and analysed. Isotype controls, IgG1 and IgG2a (Becton Dickinson, Oxford, UK) were used in parallel.
Another group of regulatory T cells recently described are characterised by the expression of CD8CD122.

## BiP: 78 kD endoplasmic reticulum chaperone protein as disclosed in WO 00/21995; recombinant human protein
[1]; T cells from 4d co-culture with allogeneic DC(BiP), n=3
  % inhibition of responder T cell proliferation to anti-CD3 antibody: 28.7±13.3 % inhibition
[1]; T cells from 4d co-culture with autologous DC(BiP), n=5
  % inhibition of responder T cell proliferation to anti-CD3 antibody: 63.8±13.7 % inhibition
T cells; PBMC incubated with BiP for four days (FIG. 4)
  CCR5 expression by T cells: slightly downregulated
T cells; PBMC incubated with BiP for four days, three experiments (FIG. 4)
  CCR4 expression by T cells: significantly raised
T cells; T cells after 7 days incubation with BiP, n=3
  CD8CD122 expression: 75.6%±23.5%
